Experimental data from ChEMBL document CHEMBL1201862, “PubChem BioAssay data set” (2004).
One block for each compound: values may come before it. The source made the active and inactive calls. For most assays here, no stated cut-off is given here; in the data, actives have a measured IC50 and inactives only a lower limit.

Experiments:
[1] = target: Multidrug resistance protein CDR2 (Candida albicans (strain SC5314 / ATCC MYA-2876) (Yeast), UniProt P78595); assay: inhibition of Nile Red efflux via Candida CDR2 – S. cerevisiae AD1-8u, singleplex, Cherry Pick1 hits, dose response (AID 588604); assay type: functional
Chain of Multidrug resistance protein CDR2 (P78595 whole entry): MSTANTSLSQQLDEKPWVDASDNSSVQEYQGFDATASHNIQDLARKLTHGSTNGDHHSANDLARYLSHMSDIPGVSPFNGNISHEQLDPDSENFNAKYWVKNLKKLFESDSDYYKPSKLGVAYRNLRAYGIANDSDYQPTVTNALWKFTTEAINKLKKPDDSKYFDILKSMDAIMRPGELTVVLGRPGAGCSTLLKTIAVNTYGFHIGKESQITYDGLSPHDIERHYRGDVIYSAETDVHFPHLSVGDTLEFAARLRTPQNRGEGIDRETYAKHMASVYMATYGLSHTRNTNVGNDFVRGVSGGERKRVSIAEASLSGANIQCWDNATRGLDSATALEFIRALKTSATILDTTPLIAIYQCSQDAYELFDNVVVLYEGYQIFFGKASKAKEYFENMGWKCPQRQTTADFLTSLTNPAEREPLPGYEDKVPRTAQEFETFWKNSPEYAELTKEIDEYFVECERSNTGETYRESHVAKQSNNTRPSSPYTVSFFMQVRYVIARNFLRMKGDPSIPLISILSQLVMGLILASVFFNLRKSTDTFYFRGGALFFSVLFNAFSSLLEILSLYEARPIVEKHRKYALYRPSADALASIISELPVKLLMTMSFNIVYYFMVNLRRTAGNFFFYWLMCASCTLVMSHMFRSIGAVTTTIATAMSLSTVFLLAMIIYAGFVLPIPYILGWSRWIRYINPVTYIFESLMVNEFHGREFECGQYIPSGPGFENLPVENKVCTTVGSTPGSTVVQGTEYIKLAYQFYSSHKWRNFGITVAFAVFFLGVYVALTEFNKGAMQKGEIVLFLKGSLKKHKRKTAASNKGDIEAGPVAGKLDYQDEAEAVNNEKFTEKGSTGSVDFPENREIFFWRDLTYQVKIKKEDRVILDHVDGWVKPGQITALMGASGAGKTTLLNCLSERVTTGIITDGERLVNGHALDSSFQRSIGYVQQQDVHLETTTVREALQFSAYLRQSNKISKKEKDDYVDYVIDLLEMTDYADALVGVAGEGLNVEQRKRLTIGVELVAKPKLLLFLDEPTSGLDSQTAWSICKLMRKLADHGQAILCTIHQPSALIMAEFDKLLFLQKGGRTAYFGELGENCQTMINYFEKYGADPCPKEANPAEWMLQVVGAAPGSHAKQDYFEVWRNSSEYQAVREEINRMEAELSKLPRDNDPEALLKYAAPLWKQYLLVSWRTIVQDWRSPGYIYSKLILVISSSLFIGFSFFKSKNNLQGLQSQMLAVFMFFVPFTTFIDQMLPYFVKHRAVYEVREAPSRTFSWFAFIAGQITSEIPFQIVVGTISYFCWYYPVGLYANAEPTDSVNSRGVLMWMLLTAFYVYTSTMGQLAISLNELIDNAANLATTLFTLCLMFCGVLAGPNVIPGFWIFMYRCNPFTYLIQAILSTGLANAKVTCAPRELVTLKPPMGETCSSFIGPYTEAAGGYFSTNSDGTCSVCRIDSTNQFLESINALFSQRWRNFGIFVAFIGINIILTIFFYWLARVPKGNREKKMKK

[2] = target: Latent membrane protein 1 (Human herpesvirus 4 (strain B95-8), UniProt P03230); assay: LMP1 TES1 pathway selectivity over dsRED control – imaging, HEK293T, dual-color eGFP/dsRED, cherry-picks, selectivity assay for LMP1 NF-kB inhibitor project, dose response (AID 588398); assay type: functional, cell-based
Chain of Latent membrane protein 1 (P03230 whole entry): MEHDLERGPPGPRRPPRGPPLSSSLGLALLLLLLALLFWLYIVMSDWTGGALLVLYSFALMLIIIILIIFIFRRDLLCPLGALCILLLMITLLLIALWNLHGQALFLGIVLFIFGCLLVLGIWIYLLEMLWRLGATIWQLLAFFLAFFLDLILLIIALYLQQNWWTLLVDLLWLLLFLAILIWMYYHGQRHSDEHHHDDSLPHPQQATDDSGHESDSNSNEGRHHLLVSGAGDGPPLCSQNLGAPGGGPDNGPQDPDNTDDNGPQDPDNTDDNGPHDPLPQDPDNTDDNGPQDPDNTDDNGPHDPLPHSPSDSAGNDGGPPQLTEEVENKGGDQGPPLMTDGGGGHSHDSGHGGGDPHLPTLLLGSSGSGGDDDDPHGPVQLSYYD

[3] = system: H9c2; assay: cells; assay type: functional, cell-based; details: Rattus norvegicus, H9c2, Myocardium;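 further: confirmatory concentration-response retest of ultra-high-throughput screening hits for modulation of myocardial damage; cell death induced by hydrogen peroxide oxidative stress; compound pretreatment for 60 min then peroxide exposure for 2 h; potency is for protecting the cells against peroxide damage rather than for killing them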
[4] = target: T1, High affinity choline transporter 1 (Homo sapiens, UniProt Q9GZV3); assay: human choline transporter potentiators, potency – cell-based, 10-point CRC, membrane potential dye, dose response (AID 602376); assay type: functional
T1 sequence (Q9GZV3 whole entry): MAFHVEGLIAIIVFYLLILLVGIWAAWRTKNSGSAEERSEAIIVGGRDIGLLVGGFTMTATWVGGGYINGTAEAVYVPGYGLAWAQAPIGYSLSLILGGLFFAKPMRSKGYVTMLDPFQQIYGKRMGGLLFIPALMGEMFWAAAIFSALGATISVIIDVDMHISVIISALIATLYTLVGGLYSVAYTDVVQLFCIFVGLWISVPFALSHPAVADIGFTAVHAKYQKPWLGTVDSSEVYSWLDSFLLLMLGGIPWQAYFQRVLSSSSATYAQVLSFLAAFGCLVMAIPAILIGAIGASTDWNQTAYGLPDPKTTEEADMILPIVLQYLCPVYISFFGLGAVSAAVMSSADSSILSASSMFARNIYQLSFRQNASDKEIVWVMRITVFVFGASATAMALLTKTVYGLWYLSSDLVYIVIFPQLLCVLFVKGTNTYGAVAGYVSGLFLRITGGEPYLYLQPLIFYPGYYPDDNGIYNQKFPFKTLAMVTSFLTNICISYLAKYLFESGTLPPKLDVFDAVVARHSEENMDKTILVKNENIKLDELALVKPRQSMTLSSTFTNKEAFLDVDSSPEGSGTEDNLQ

[5] = target: T2, Sentrin-specific protease 8 (Homo sapiens, UniProt Q96LD8); assay: inhibition of human SENP8 cleavage activity – biochemical, luminescence, SAR follow-up (AID 504501); assay type: functional
T2 sequence (Q96LD8 whole entry): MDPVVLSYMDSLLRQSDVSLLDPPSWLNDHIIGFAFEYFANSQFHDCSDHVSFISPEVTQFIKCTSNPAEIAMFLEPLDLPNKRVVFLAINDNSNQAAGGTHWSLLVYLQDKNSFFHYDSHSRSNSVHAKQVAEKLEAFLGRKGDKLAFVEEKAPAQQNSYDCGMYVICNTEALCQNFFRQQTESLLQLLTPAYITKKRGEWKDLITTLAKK

[6] = target: T3, Caspase-3 (Homo sapiens, UniProt P42574); assay: inhibition of recombinant caspase-3 activity – biochemical, luminescence, set 2, selectivity assay for SENP protease inhibitor project, SAR follow-up (AID 588599); assay type: functional
T3 sequence (P42574 whole entry): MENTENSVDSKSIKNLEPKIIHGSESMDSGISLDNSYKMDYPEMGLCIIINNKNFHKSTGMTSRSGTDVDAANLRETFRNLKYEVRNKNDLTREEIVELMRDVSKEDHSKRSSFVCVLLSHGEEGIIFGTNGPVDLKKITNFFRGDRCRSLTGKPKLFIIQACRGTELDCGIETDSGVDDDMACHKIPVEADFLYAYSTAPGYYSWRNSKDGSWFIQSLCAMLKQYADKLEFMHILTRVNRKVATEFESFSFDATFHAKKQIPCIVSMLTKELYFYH

[7] = target: T2, Sentrin-specific protease 8; assay: inhibition of sentrin protease 8 – biochemical, luminescence, set 2, SAR follow-up (AID 588601); assay type: functional
[8] = target: T3, Caspase-3; assay: SAR Analysis of small molecule inhibitors of Sentrin-specific proteases (SENPs) using a Caspase-3 Selectivity assay. [Related pubchem assays (depositor defined):AID2540, AID2599, AID434973, AID489001]; assay type: functional
[9] = target: T4, Sentrin-specific protease 7 (Homo sapiens, UniProt Q9BQF6); assay: inhibition of human SENP7 cleavage activity – biochemical, luminescence, set 2, SAR follow-up (AID 588600); assay type: functional
T4 sequence (Q9BQF6 whole entry): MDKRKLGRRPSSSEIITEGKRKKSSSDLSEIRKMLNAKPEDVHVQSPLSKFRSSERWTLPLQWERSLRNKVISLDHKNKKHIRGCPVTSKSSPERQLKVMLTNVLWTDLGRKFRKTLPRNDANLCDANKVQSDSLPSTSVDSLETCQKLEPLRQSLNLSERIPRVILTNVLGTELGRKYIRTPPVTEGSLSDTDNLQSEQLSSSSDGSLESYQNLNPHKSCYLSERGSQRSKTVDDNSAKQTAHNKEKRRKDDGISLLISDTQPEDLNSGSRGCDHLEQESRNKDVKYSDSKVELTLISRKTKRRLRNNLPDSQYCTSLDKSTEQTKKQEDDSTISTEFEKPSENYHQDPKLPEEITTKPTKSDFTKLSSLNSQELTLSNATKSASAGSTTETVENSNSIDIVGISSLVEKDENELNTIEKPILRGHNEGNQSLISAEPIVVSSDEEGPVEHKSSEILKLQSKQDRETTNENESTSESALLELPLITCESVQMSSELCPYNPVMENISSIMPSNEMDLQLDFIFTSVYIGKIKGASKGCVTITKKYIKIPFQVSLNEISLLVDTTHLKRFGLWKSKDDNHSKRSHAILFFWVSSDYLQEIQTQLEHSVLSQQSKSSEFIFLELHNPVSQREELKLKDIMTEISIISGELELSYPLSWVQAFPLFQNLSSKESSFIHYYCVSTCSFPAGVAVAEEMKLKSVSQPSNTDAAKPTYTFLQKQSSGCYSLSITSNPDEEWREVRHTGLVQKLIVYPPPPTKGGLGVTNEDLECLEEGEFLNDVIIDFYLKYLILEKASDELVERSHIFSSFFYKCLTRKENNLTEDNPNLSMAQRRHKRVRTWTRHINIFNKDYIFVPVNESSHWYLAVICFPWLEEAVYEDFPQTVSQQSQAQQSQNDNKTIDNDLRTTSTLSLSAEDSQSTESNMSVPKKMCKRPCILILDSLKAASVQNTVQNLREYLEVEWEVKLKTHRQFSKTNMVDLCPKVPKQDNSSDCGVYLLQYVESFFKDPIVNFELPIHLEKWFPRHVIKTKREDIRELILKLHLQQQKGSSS

[10] = target: T5, Sentrin-specific protease 6 (Homo sapiens, UniProt Q9GZR1); assay: SAR Analysis of small molecule inhibitors of Sentrin-specific protease 6 (SENP6) using a Luminescent assay. [Related pubchem assays (depositor defined):AID2582, AID2599]; assay type: functional
T5 sequence (Q9GZR1 whole entry): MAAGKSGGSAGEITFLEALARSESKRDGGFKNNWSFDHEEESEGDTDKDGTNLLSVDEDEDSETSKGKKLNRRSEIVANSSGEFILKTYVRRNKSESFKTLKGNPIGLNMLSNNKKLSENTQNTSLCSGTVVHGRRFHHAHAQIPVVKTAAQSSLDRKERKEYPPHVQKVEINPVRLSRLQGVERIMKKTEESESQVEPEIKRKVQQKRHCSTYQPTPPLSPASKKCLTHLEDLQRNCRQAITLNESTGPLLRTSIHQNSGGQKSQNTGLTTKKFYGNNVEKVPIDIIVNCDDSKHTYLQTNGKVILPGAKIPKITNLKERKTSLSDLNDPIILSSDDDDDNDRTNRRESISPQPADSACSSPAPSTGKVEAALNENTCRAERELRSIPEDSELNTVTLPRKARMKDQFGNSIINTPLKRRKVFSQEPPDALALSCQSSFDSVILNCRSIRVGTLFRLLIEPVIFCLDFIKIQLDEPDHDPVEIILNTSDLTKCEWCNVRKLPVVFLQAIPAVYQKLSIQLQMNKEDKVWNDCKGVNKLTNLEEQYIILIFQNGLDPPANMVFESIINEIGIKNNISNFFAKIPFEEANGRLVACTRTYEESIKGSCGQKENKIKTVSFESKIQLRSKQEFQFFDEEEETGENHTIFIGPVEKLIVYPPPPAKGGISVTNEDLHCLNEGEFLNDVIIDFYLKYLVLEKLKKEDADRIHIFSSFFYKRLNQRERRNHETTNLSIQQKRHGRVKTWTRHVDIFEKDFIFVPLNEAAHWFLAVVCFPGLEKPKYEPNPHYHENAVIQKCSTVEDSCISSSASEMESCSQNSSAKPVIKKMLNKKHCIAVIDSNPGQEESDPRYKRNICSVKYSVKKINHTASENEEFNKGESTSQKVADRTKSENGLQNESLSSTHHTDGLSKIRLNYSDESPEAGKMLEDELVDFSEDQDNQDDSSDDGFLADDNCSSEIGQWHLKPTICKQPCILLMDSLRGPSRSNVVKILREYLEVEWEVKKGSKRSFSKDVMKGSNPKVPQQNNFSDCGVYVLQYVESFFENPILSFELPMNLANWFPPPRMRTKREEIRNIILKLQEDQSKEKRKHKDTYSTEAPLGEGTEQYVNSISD

[11] = target: T5, Sentrin-specific protease 6; assay: inhibition of human SENP6 catalytic domain – biochemical, luminescence, set 2, SAR follow-up (AID 588598); assay type: functional
[12] = target: T4, Sentrin-specific protease 7; assay: inhibition of human SENP7 cleavage activity – biochemical, luminescence, SAR follow-up (AID 504497); assay type: functional

Structure (SMILES): O=C(Cn1c(COc2ccccc2)nc2ccccc21)Nc1cc(Cl)c(Cl)cc1Cl
- EC50 [1]: 15700 nM (active)

- AC50 [2]: 66500 nM (active)
Structure (SMILES): O=C(Nc1ccccn1)NC1CCCCC1

Structure (SMILES): COC(=O)c1ccc(C(NC(=O)OCc2ccccc2)/C(C)=C/[C@@H](C)C(=O)NCc2ccc(OC)c(OC)c2)cc1 (some centres not stated)
- IC50 [3]: 10600 nM (active)
- EC50 [4]: 12300 nM (active)

- IC50 [6]: 1170 nM (active)
- IC50 [8]: 1400 nM (active)
- IC50 [9]: 1350 nM (active)
- IC50 [10]: 1400 nM (active)
- IC50 [11]: 1260 nM (active)
- IC50 [12]: 1100 nM (active)
Structure (SMILES): COc1ccc(/C=C/c2noc(-c3ccccc3O)n2)cc1
- IC50 [5]: 1300 nM (active)
- IC50 [7]: 1190 nM (active)
